# Measured values from patent publication US20210059983A1, “METHODS AND MATERIALS FOR IDENTIFYING AND TREATING CANCER” (Mayo Foundation for Medical Education and Research, priority 2018, published 2021).
# “Also recorded” adds a separate entry of the source.
# Tests used:
# RCC (786O) cells = experiment: Cell viability (Cell Titer Blue); format: cell-based
# Method: Cells were incubated at varying concentrations and at various time periods with L-ascorbic acid (Sigma-Aldrich, Cat #50-81-7) with or without catalase at 100 μg/mL (Sigma-Aldrich, Cat #9001-05-2). Viability was assessed by addition of Cell Titer Blue (Promega, Madison, Wis., USA) and measured via Fluostar Omega Microplate reader (BMG Labtech, Offenburg, Germany). […] A protocol modification to counter this interference was done as described elsewhere (Shenoy et al., Laboratory Investigation, 97:494-497 (2017)) and used in this study.
# 786-O cells [1] = experiment: Flow cytometry for cell cycle analysis (PI); format: cell-based; settings: high dose AA + catalase, 96 hours
# Method: (§1) 786-O cells were treated with high dose ascorbic acid (+catalase), and apoptosis and cell cycle dynamics were studied at the 96 hour time point. Cells were washed with Annexin buffer solution and stained with both propidium iodide (PI) and FITC-Annexin V (Life Technologies), and assayed on a BD FACS Calibur flow cytometer (BD Biosciences). Apoptosis results were analyzed with BD CellQuest software. For cell cycle analysis, cells were fixed with 70% cold ethanol and subsequently analyzed after PI staining. Analysis was performed using FlowJo software.
# [2] = tested on: ccRCC cells (786 and 769); experiment: Genome wide DNA methylation analysis using the HELP assay; format: cell-based, human
# Method: The HELP assay was carried out as described elsewhere ([…] et al., Nucleic Acids Res., 41(16):e157 (2013)). Intact DNA of high molecular weight was corroborated by electrophoresis on 1% agarose gel in all cases. One microgram of genomic DNA was digested overnight with either HpaII or MspI (NEB, Ipswich, Mass.). The following day, the reactions were extracted once with phenol-chloroform and resuspended in 11 μL of 10 mM Tris-HCl pH 8.0. The digested DNA was used to set up an overnight ligation of the JHpaII adapter using T4 DNA ligase. The adapter-ligated DNA was used to carry out the PCR amplification of the HpaII and MspI-digested DNA as described elsewhere ([…] et al., Nucleic Acids Res., 41(16):e157 (2013)). Both amplified fractions were submitted for labeling and hybridization onto a human hg18 custom-designed oligonucleotide array (50-mers) covering 1.3 million HpaII amplifiable fragments (HAF). All microarray hybridizations were subjected to extensive quality control. Uniformity of hybridization was evaluated using a modified version of an algorithm adapted for the NimbleGen platform, and any hybridization with strong regional artifacts was discarded. Bioinformatic analysis was done as described elsewhere (Bhattacharyya et al., Nucleic Acids Res., 41(16):[…] (2013); Suzuki et al., Genome Biol., 11(4):[…] (2010)).
# 786-O cells [3] = experiment: Flow cytometry for apoptosis (Annexin V/PI); format: cell-based; settings: AA 1 mM + catalase, assay at 96 hour time point
# Method: as §1
# RCC cells 769P = experiment: Measurement of 5hmC levels by LC-ESI-MS/MS; format: cell-based; settings: 769P cells after AA treatment
# [4] = tested on: TET enzymatic activity in RCC cells (769P and 7860); experiment: In-vitro TET enzymatic activity of nuclear extracts from AA treated RCC cells (ELISA-based Epigenase 5mC Hydroxylase TET Activity kit); settings: pH neutralized AA, ccRCC cell lines 769P and 7860, short exposure then 24 hour incubation in fresh media
# Method: Cells were treated with different concentrations of pH neutralized AA, with or without catalase. Exposure time to 1 mM AA was 2 hours (taking into account the plasma concentration curve with intravenous (i.v.) AA and potential differences between plasma concentrations with that of tumor microenvironment) followed by the cells being washed and incubated in fresh media for 24 hours. Nuclear protein was then isolated from cells using the EpiQuik nuclear extraction kit (Epigentek Group Inc, Farmingdale, N.Y., USA), according to the manufacturer's instructions. TET enzymatic activity was measured by using the Enzyme Linked ImmunoSorbent Assay (ELISA)-based Epigenase 5mC Hydroxylase TET Activity/Inhibition Assay Kit (Fluorometric) according to the manufacturer's instructions. This technique relied on the conversion of methylated products at the bottom of the wells to hydroxymethylated products by the TET enzyme present in the nuclear extract. Thus, the amount of hydroxymethylated products formed was a measure of the TET activity of the nuclear extract harvested from the cells being tested. Incubation time of nuclear lysates was 90 minutes. Six micrograms of nuclear lysate was used per well for measurement of TET activity.
# [5] = tested on: RCC cells (786O) xenografted; experiment: In vivo xenograft study with AA; design: species or system immunodeficient NSG mice; settings: IV AA 1 g/kg per day, 5 days/week, 5 weeks, vs vehicle; n=10 per cohort
# Method: RCC cells (786O) were xenografted into immunodeficient NSG mice. After tumors were established, treatment was initiated with tail vein injections: IV AA at 1 g/kg/d or vehicle over 5 weeks (5 days dosing/week), and tumor measurements were conducted.
# [6] = biological target: recombinant TET-2 protein (Homo sapiens, UniProt Q6N021); experiment: Fluorescence quenching of recombinant TET-2 protein (Stern-Volmer); format: binding
# Method: The step width was 1 nm, and the integration time was 1 second.
# All protein solutions contained 0.5 μM TET2 in PBS buffer.
# In this equation, KD was the quenching constant, and [Q] was a defined concentration of ascorbic acid. F^0 and F were the fluorescence intensities (at 328 nm) in absence and presence of ascorbic acid, respectively.
# [7] = 0.5 μM TET-2 alone in PBS, 20° C.
SMILES,"viability, acute (short term exposure) (RCC (786O) cells; high dose AA (millimolar), 24 hours, without catalase)","viability at longer time points (RCC (786O) cells; high dose AA with catalase, longer-term exposure)","acute loss in viability with catalase co-treatment (RCC (786O) cells; high dose AA, 24 hours, with catalase 100 μg/mL)",cell cycle (G0/G1 arrest) (786-O cells [1]),Smad6 promoter methylation ([2]; 786 and 769 ccRCC cells after AA treatment),global cytosine methylation (HELP assay) ([2]; AA treated vs control ccRCC cells),apoptosis (786-O cells [3]),5hmC (%5hmC) by LC-ESI-MS/MS (RCC cells 769P),TET enzymatic activity [4],tumor growth [5],"quenching efficiency (Stern-Volmer constant +/−SD) [6, 7] [M⁻¹]",quenching efficiency (Stern-Volmer constant +/−SD) ([6]; 0.5 μM TET-2 in presence of 23 μM 2OG) [M⁻¹],quenching efficiency (Stern-Volmer constant +/−SD) ([6]; 0.5 μM TET-2 in presence of 2OG and L2HG (23 μM each per FIG. 5D legend)) [M⁻¹],quenching efficiency (Stern-Volmer constant +/−SD) ([6]; 0.5 μM TET-2 in presence of L2HG (100 μM per FIG. 5D legend)) [M⁻¹],"reduction of the fluorescence emission signal ([6]; 132 μM AA, 0.5 μM TET-2, emission at 328 nm, excitation 280 nm, maximal quenching) [%]"
"O=C1O[C@H]([C@@H](O)CO)C(O)=C1O [AA, L-ascorbic acid]",Acute loss in viability,reduced viability; also recorded: dose dependent and progressive loss of viability,reversed by catalase treatment,significantly arrested in G0/G1 stage; also recorded: significant increase in G0/G1 arrest,demethylated,increased hypomethylation; also recorded: loss of methylation,increased apoptosis; also recorded: significant increase in apoptosis,significantly increased; also recorded: increase in 5hmC,increased after treatment; also recorded: increase in TET enzymatic activity,significantly reduced rate of ccRCC growth; also recorded: significantly delayed tumor growth,21.46 ± 0.70,18.37 ± 0.80,17.34 ± 0.87,22.17 ± 0.68,90
O=C(O)CCC(=O)C(=O)O [2OG],–,–,–,–,–,–,–,–,–,–,15.66 ± 0.12,–,–,–,–
